Assay results reported in patent EP1202975B1, “SUBSTITUTED POLYCYCLIC ARYL AND HETEROARYL PYRAZINONES USEFUL FOR SELECTIVE INHIBITION OF THE COAGULATION CASCADE” (Pharmacia Corporation, priority 1999, dated 2000).
Read-outs that look alike come from different tables or passages of the source.

Legend:
[1] = target: T1, TF-VIIa (Homo sapiens, UniProt P08709); experiment: TF-VIIa Assay; type: biochemical
T1 construct: 2nM recombinant human factor VIIa; purchased American Diagnostica, Greenwich CT; host or cells: soluble TF made in house in E. coli
T1 sequence (P08709 213-466 limits assumed): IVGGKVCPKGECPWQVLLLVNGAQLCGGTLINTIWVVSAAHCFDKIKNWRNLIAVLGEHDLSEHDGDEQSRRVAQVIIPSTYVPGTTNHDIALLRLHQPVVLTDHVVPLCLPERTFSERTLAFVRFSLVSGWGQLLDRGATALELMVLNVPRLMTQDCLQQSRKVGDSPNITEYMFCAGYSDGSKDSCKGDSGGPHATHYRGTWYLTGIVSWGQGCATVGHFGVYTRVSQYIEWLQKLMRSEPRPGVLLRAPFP
T1 sequence (P08709 61-212 limits assumed): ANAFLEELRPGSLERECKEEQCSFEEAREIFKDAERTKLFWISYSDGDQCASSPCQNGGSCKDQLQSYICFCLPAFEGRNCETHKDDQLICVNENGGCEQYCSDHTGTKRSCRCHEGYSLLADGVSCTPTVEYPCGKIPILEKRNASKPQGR
T1 sequence (P13726 33-251 partner limits assumed): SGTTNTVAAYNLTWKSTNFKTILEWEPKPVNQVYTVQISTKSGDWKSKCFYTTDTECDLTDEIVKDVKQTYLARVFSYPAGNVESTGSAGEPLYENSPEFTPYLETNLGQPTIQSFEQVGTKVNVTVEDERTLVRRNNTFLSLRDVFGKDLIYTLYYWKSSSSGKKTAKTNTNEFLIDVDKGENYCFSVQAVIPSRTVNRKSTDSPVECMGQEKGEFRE

[2] = target: Human factor Xa (Homo sapiens, UniProt P00742); experiment: Xa Assay; details: for IC50 or % Inhibition Factor Xa (30 µM): % inhibition at 30 µM
Human factor Xa, sequence (P00742 235-488 limits assumed): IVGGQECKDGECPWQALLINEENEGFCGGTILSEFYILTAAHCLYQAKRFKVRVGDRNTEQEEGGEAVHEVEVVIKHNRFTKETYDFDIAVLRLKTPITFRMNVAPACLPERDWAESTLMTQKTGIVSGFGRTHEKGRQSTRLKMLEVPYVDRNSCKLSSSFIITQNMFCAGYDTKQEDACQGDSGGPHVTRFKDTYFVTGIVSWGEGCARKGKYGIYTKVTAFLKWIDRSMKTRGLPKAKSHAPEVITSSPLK
Human factor Xa, sequence (P00742 41-179 limits assumed): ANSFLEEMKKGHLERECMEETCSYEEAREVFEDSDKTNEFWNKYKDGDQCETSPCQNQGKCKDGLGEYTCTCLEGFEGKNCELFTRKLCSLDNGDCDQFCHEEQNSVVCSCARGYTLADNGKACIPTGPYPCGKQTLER

[3] = read-out: IC50 or % Inhibition TF-VIIa (30 µM); cells given as a plain number (IC50)
[4] = read-out: IC50 or % Inhibition Factor Xa (30 µM), cells given as a plain number (IC50)
[5] = cells given as a plain number (IC50); read-out: IC50 or % Inhibition TF-VIIa (30 µM)

| Structure (SMILES) | IC50 [1, 3] | IC50 [2, 4] | also measured |
| --- | --- | --- | --- |
| N=C(N)c1ccc(CNC(=O)Cn2c(-c3cccs3)c(Cl)nc(NCc3ccccc3)c2=O)cc1 [1515-06] | 1700 nM | > 30000 nM | – |
| N=C(N)c1ccc(CNC(=O)Cn2c(-c3ccc(F)cc3)c(Cl)nc(NCc3ccccc3)c2=O)cc1 [1515-07] | 14200 nM | > 30000 nM | – |
| N=C(N)c1ccc(CNC(=O)Cn2c(-c3cccc(F)c3)c(Cl)nc(NCc3ccccc3)c2=O)cc1 [1515-09] | 4100 nM | > 30000 nM | – |
| N=C(N)c1ccc(CNC(=O)Cn2c(-c3cccc(Br)c3)c(Cl)nc(NCc3ccccc3)c2=O)cc1 [1515-10] | 5700 nM | > 30000 nM | – |
| N=C(N)c1ccc(CNC(=O)Cn2c(-c3ccccc3F)c(Cl)nc(NCc3ccccc3)c2=O)cc1 [1515-11] | 4300 nM | > 30000 nM | – |
| N=C(N)c1ccc(CNC(=O)Cn2c(-c3ccccc3C(F)(F)F)c(Cl)nc(NCc3ccccc3)c2=O)cc1 [1515-12] | 6300 nM | > 30000 nM | – |
| COc1ccccc1-c1c(Cl)nc(NC2CCC2)c(=O)n1CC(=O)NCc1ccc(C(=N)N)cc1 [1515-14] | 2900 nM | > 30000 nM | – |
| N=C(N)c1ccc(CNC(=O)Cn2c(-c3ccccc3Cl)c(Cl)nc(NC3CCC3)c2=O)cc1 [1515-16] | 8800 nM | > 30000 nM | – |
| COc1cccc(-c2c(Cl)nc(NC3CCC3)c(=O)n2CC(=O)NCc2ccc(C(=N)N)cc2)c1 [1515-17] | 4400 nM | > 30000 nM | – |
| N=C(N)c1ccc(CNC(=O)Cn2c(-c3cccs3)c(Cl)nc(NC3CCC3)c2=O)cc1 [1515-18] | 600 nM | > 30000 nM | – |
| N=C(N)c1ccc(CNC(=O)Cn2c(-c3ccc(F)cc3)c(Cl)nc(NC3CCC3)c2=O)cc1 [1515-19] | 24200 nM | > 30000 nM | – |
| N=C(N)c1ccc(CNC(=O)Cn2c(-c3ccc(C(F)(F)F)cc3)c(Cl)nc(NC3CCC3)c2=O)cc1 [1515-20] | – | > 30000 nM | IC50 or % Inhibition TF-VIIa (30 µM) [1]: 32% |
| N=C(N)c1ccc(CNC(=O)Cn2c(-c3cccc(Br)c3)c(Cl)nc(NC3CCC3)c2=O)cc1 [1515-22] | – | > 30000 nM | IC50 [1, 5]: 4200 nM |
| N=C(N)c1ccc(CNC(=O)Cn2c(-c3ccccc3F)c(Cl)nc(NC3CCC3)c2=O)cc1 [1515-23] | 6200 nM | > 30000 nM | – |
| N=C(N)c1ccc(CNC(=O)Cn2c(-c3ccccc3C(F)(F)F)c(Cl)nc(NC3CCC3)c2=O)cc1 [1515-24] | 1600 nM | > 30000 nM | – |
| N=C(N)c1ccc(CNC(=O)Cn2c(-c3cccc(C(F)(F)F)c3)c(Cl)nc(NCCc3ccccc3)c2=O)cc1 [1515-25] | – | > 30000 nM | IC50 [1, 5]: 2900 nM |
| COc1ccccc1-c1c(Cl)nc(NCCc2ccccc2)c(=O)n1CC(=O)NCc1ccc(C(=N)N)cc1 [1515-26] | – | > 30000 nM | IC50 [1, 5]: 1600 nM |
| N=C(N)c1ccc(CNC(=O)Cn2c(-c3sccc3Br)c(Cl)nc(NCCc3ccccc3)c2=O)cc1 [1515-27] | 1100 nM | > 30000 nM | – |
| N=C(N)c1ccc(CNC(=O)Cn2c(-c3cccs3)c(Cl)nc(NCCc3ccccc3)c2=O)cc1 [1515-30] | 1200 nM | > 30000 nM | – |
| N=C(N)c1ccc(CNC(=O)Cn2c(-c3cccc(F)c3)c(Cl)nc(NCCc3ccccc3)c2=O)cc1 [1515-33] | – | > 30000 nM | IC50 [1, 5]: 2300 nM |

| Structure (SMILES) | IC50 [1, 3] | IC50 [2, 4] | also measured |
| --- | --- | --- | --- |
| N=C(N)c1ccc(CNC(=O)Cn2c(-c3cccc(Br)c3)c(Cl)nc(NCCc3ccccc3)c2=O)cc1 [1515-34] | 4400 nM | > 30000 nM | – |
| N=C(N)c1ccc(CNC(=O)Cn2c(-c3ccccc3F)c(Cl)nc(NCCc3ccccc3)c2=O)cc1 [1515-35] | – | > 30000 nM | IC50 [1, 5]: 1800 nM |
| CCCCNc1nc(Cl)c(-c2ccccc2)n(CC(=O)NCc2ccc(C(=N)N)cc2)c1=O [1517-35] | – | – | IC50 or % Inhibition TF-VIIa (30 µM) ([1]; % inhibition at 30 µM): 33%; IC50 or % Inhibition Factor Xa (30 µM) [2]: 0% |
| CC(C)CCNc1nc(Cl)c(-c2ccccc2)n(CC(=O)NCc2ccc(C(=N)N)cc2)c1=O [1517-40] | – | – | IC50 [1, 5]: 1200 nM; IC50 or % Inhibition Factor Xa (30 µM) [2]: 0% |
| CC(C)(C)CCNc1nc(Cl)c(-c2ccccc2)n(CC(=O)NCc2ccc(C(=N)N)cc2)c1=O [1517-41] | – | – | IC50 [1, 5]: 2200 nM; IC50 or % Inhibition Factor Xa (30 µM) [2]: 0% |
| N=C(N)c1ccc(CNC(=O)Cn2c(-c3ccccc3)c(Cl)nc(NCCN3CCCC3)c2=O)cc1 [1522-08] | 270 nM | > 30000 nM | – |
| CC(C)CCNc1nc(Cl)c(-c2ccccc2)n(CC(=O)NCc2ccc(C(=N)N)cc2)c1=O [1522-14] | – | > 30000 nM | IC50 [1, 5]: 840 nM |
| CC(C)C(C)Nc1nc(Cl)c(-c2ccccc2)n(CC(=O)NCc2ccc(C(=N)N)cc2)c1=O (stereo not drawn) [1522-15] | 540 nM | > 30000 nM | – |
| CC(C)CC(C)Nc1nc(Cl)c(-c2ccccc2)n(CC(=O)NCc2ccc(C(=N)N)cc2)c1=O (stereo not drawn) [1522-17] | 620 nM | > 30000 nM | – |
| CC(C)(C)CCNc1nc(Cl)c(-c2ccccc2)n(CC(=O)NCc2ccc(C(=N)N)cc2)c1=O [1522-18] | – | > 30000 nM | IC50 [1, 5]: 1700 nM |
| CC(CNc1nc(Cl)c(-c2ccccc2)n(CC(=O)NCc2ccc(C(=N)N)cc2)c1=O)N(C)C (stereo not drawn) [1522-23] | 2200 nM | > 30000 nM | – |
| CC(C)CNc1nc(Cl)c(-c2ccccc2)n(CC(=O)NCc2ccc(C(=N)N)cc2)c1=O [1522-34] | – | > 30000 nM | IC50 [1, 5]: 500 nM |
| CCN1CC(Nc2nc(Cl)c(-c3ccccc3)n(CC(=O)NCc3ccc(C(=N)N)cc3)c2=O)CN1CC [1522-35] | 4000 nM | > 30000 nM | – |
| N=C(N)c1ccc(CNC(=O)Cn2c(-c3ccccc3)c(Cl)nc(NC3CCCCCC3)c2=O)cc1 [1522-36] | – | > 30000 nM | IC50 [1, 5]: 1000 nM |
| N=C(N)c1ccc(CNC(=O)Cn2c(-c3ccccc3)c(Cl)nc(NCCNc3ncc(C(F)(F)F)cc3Cl)c2=O)cc1 [1522-37] | 2000 nM | > 30000 nM | – |
| N=C(N)c1ccc(CNC(=O)Cn2c(-c3ccccc3)c(Cl)nc(NCCNc3ncccc3C(F)(F)F)c2=O)cc1 [1522-38] | 1000 nM | > 30000 nM | – |
| N=C(N)c1ccc(CNC(=O)Cn2c(-c3ccccc3)c(Cl)nc(NCCCCN3CCCC3)c2=O)cc1 [1522-42] | 1000 nM | > 30000 nM | – |
| C[C@H](Nc1nc(Cl)c(-c2ccccc2)n(CC(=O)NCc2ccc(C(=N)N)cc2)c1=O)C1CCCCC1 [1522-43] | 800 nM | > 30000 nM | – |
| N=C(N)c1ccc(CNC(=O)Cn2c(-c3ccccc3)c(Cl)nc(NC3CC4CCC3C4)c2=O)cc1 (stereo not drawn) [1522-44] | – | > 30000 nM | IC50 [1, 5]: 800 nM |
| N=C(N)c1ccc(CNC(=O)Cn2c(-c3ccccc3)c(Cl)nc(NC3CCS(=O)(=O)C3)c2=O)cc1 (stereo not drawn) [1522-46] | – | > 30000 nM | IC50 [1, 5]: 1000 nM |

| Structure (SMILES) | IC50 [1, 3] | IC50 [2, 4] | also measured |
| --- | --- | --- | --- |
| N=C(N)c1ccc(CNC(=O)Cn2c(-c3cccc(N)c3)c(Cl)nc(NC3CC3)c2=O)cc1 [1526-01] | 20 nM | > 30000 nM | – |
| N=C(N)c1ccc(CNC(=O)Cn2c(-c3cccc(N)c3)c(Cl)nc(NCC(F)(F)F)c2=O)cc1 [1526-04] | 30 nM | > 30000 nM | – |
| COCC(C)Nc1nc(Cl)c(-c2cccc(N)c2)n(CC(=O)NCc2ccc(C(=N)N)cc2)c1=O (stereo not drawn) [1526-05] | 100 nM | > 30000 nM | – |
| CC(C)(C)Nc1nc(Cl)c(-c2cccc(N)c2)n(CC(=O)NCc2ccc(C(=N)N)cc2)c1=O [1526-07] | 80 nM | > 30000 nM | – |
| CC[C@H](C)Nc1nc(Cl)c(-c2cccc(N)c2)n(CC(=O)NCc2ccc(C(=N)N)cc2)c1=O [1526-09] | 30 nM | > 30000 nM | – |
| CCC(CC)Nc1nc(Cl)c(-c2cccc(N)c2)n(CC(=O)NCc2ccc(C(=N)N)cc2)c1=O [1526-11] | – | > 30000 nM | IC50 [1, 5]: 50 nM |
| CCCNc1nc(Cl)c(-c2cccc(N)c2)n(CC(=O)NCc2ccc(C(=N)N)cc2)c1=O [1526-13] | 60 nM | > 30000 nM | – |
| CCC(C)Nc1nc(Cl)c(-c2cccc(N)c2)n(CC(=O)NCc2ccc(C(=N)N)cc2)c1=O (stereo not drawn) [1526-14] | 40 nM | > 30000 nM | – |
| CC(C)C(C)Nc1nc(Cl)c(-c2cccc(N)c2)n(CC(=O)NCc2ccc(C(=N)N)cc2)c1=O (stereo not drawn) [1526-15] | 60 nM | > 30000 nM | – |
| CC[C@@H](C)Nc1nc(Cl)c(-c2cccc(N)c2)n(CC(=O)NCc2ccc(C(=N)N)cc2)c1=O [1526-16] | 40 nM | > 30000 nM | – |
| C=CCNc1nc(Cl)c(-c2cccc(N)c2)n(CC(=O)NCc2ccc(C(=N)N)cc2)c1=O [1526-19] | 40 nM | > 30000 nM | – |
| C#CCNc1nc(Cl)c(-c2cccc(N)c2)n(CC(=O)NCc2ccc(C(=N)N)cc2)c1=O [1526-21] | 50 nM | > 30000 nM | – |
| N=C(N)c1ccc(CNC(=O)Cn2c(-c3cccc(N)c3)c(Cl)nc(NC3CCC3)c2=O)cc1 [1526-23] | 30 nM | > 30000 nM | – |
| COCCNc1nc(Cl)c(-c2cccc(N)c2)n(CC(=O)NCc2ccc(C(=N)N)cc2)c1=O [1526-25] | – | > 30000 nM | IC50 [1, 5]: 140 nM |
| CC(C)CNc1nc(Cl)c(-c2cccc(N)c2)n(CC(=O)NCc2ccc(C(=N)N)cc2)c1=O [1526-26] | 60 nM | > 30000 nM | – |
| C[C@H](Nc1nc(Cl)c(-c2cccc(N)c2)n(CC(=O)NCc2ccc(C(=N)N)cc2)c1=O)C1CCCCC1 [1526-29] | 120 nM | > 30000 nM | – |
| N=C(N)c1ccc(CNC(=O)Cn2c(-c3cccc(N)c3)c(Cl)nc(N[C@@H]3CC4CCC3C4)c2=O)cc1 (stereo partly drawn) [1526-30] | 80 nM | > 30000 nM | – |
| N=C(N)c1ccc(CNC(=O)Cn2c(-c3cccc(N)c3)c(Cl)nc(NC[C@@H]3CCCO3)c2=O)cc1 [1526-33] | 260 nM | > 30000 nM | – |
| N=C(N)c1ccc(CNC(=O)Cn2c(-c3cccc(N)c3)c(Cl)nc(NC3CCC3)c2=O)c(F)c1 [1543-39] | – | – | IC50 ([1]; cells without % sign: IC50; read-out: IC50 or % Inhibition TF-VIIa (30 µM)): 40 nM; IC50 or % Inhibition Factor Xa (30 µM) [2]: 14% |
| N=C(N)c1ccc(CNC(=O)Cn2c(Cc3ccccc3)cnc(NCCc3ccccc3)c2=O)cc1 [Example 2] | – | – | IC50 [1, 5]: 5000 nM; IC50 [2]: > 100000 nM |
